Assay [1] has as its target T1, human FAAH (Fatty Acid Amide Hydrolase) (Homo sapiens, UniProt O00519).
T1 construct: The full length FAAH was subcloned into the mammalian expression vector, pcDEF.neo, using XbaI and EcoRI restriction sites; expressed in transfected cells
T1 sequence (O00519 1-579): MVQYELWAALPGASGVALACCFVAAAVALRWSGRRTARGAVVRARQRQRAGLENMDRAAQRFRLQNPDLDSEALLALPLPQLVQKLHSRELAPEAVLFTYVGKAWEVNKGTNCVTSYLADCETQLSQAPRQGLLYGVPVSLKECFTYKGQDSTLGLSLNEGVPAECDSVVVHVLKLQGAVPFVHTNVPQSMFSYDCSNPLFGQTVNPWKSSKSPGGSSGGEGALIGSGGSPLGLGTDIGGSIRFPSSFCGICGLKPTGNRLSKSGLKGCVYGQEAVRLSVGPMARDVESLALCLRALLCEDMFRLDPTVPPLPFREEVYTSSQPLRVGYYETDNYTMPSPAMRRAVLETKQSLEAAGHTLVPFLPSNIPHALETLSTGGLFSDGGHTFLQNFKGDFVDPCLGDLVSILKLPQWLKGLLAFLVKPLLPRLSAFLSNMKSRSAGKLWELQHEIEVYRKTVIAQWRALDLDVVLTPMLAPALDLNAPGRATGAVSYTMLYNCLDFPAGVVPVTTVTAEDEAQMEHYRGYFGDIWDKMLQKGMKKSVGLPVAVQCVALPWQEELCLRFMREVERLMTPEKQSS
Kind of assay: FAAH enzyme assay on CHO cell lysate expressing human FAAH (human LY), AAMCA fluorescent substrate. It counts as biochemical. Conditions: human FAAH_CHO cell lysate. The text has this:
(§1) To assist in assay development stable cell lines for human, murine and rat full length FAAH were developed. Human FAAH cDNA (Accession No: NM_001441.1) was purchased from Origene (Rockville, Md.). The full length FAAH was subcloned into the mammalian expression vector, pcDEF.neo, using XbaI and EcoRI restriction sites and used for stable cell line generation.
CHO cells expressing FAAH were used to prepare either crude cell lysate or microsome fractions. To harvest cells, tissue culture media was decanted, the monolayer washed three times with Ca^++Mg^++ free PBS and cells recovered after […] in enzyme free dissociation media (Millipore Corp, Billerica, Mass.). Cells were collected by centrifuging at 2000 rpm for 15 min. and the cell pellet re-suspended with 50 mM HEPES (pH 7.4) containing 1 mM EDTA and the protease inhibitors aprotinin (1 mg/ml) and leupeptin (100 μM). The suspension was sonicated at 4° C. and the cell lysate recovered after centrifuging at 12,000×g (14,600 rpm, SS34 rotor) for 20 min at 4° C. to form a crude pellet of cell debris, nuclei, peroxisomes, lysosomes, and mitochondria; the supernatant or cell lysate was used for FAAH enzyme assay. In some cases, microsomes fractions enriched in FAAH were prepared by centrifuging the cell lysate further at 27,000 rpm (100,000×g) in SW28 rotor for 50 minutes at 4° C. The pellet containing FAAH-enriched microsomes was re-suspend in 50 mM HEPES, (pH 7.4) 1 mM EDTA, and any remaining DNA sheared by passage of material through a 23 gauge needle and aliquots of enzyme were store at −80° C. prior to use.
(§2) (American Radiolabeled Chemicals; 1 mCi/ml) with FAAH (Life Sciences (1995), 56, 1999-2005 and Journal of Pharmacology and Experimented Therapeutics (1997), 283, 729-734), Analytical. Biochemistry (2003), 318, 270-5. In addition, routine assays were performed monitoring hydrolysis of arachidonyl-7-amino-4-methylcoumarin amide (AAMCA) by following increase in fluorescence upon release of 7-amino 4-methyl coumarin (λEX=355 nm, μEM=460 nm). Analytical. Biochemistry (2005). 343, 143-51
(§3) Assays are performed on either cell lysate or microsome fractions prepared as described or in whole cell format employing either the fluorescent substrate AAMCA (Cayman chemical, Ann Arbor, Mich.,) or ^3H-anandamide ([ETHANOLAMINE-1-3H] American Radiolabeled Chemicals; 1 mCi/ml). The cell lysate or microsome assay is performed in black PerkinElmer OptiPlates-384F by adding FAAH_CHO (whole cell (human whole cell or human WC), cell lysate (human cell lysate or human LY) or microsome) in assay buffer (50 mM Phosphate, pH 8.0, 1 mM EDTA, 200 mM KCl, 0.2% glycerol, 0.1% fatty acid free BSA) to each well, followed by either DMSO or compound and allowed to incubate at 22-25° C. for fifteen minutes. AAMCA substrate was used to achieve a final concentration of 1 μM and reaction allowed to proceed at room temperature for 1-3 hours. Fluorescent release as a measure of FAAH activity was monitored by reading the plate in a Envision plate Reader (Ex: 360/40 nM; Em: 460/40 nM). Whole cell assay is conducted with cells harvested after rinsing tissue culture flasks three times with Ca^++Mg^++ free PBS, incubating for […] in Enzyme free dissociation media and centrifuging for 5 minutes at 1,000 rpm in table top centrifuge. Cells are resuspended in assay buffer at desired cell number in (4×10^4 cells/assay in 96-well format; 1×10^4 cells/assay in 384-well format) and assayed as described.

Assay [2] deals with T1, human FAAH (Fatty Acid Amide Hydrolase). As to the kind of experiment: FAAH whole cell assay on CHO cells expressing human FAAH (human WC), AAMCA fluorescent substrate. The following applies: human FAAH_CHO whole cell. It counts as cell-based.
From the text: as §1
Murine (accession number NM_010173) and Rat FAAH (accession number NM_024132) was amplified by reverse transcriptase polymerase chain reaction (RT-PCR) from brain cDNA (BD Biosciences, San Jose, Calif.) using primers 1 and 2 or primers 1 and 3 respectively (see Table). The resulting PCR product was ligated into pCR4 TOPO and DNA sequence confirmed. The full length murine FAAH was subcloned into the mammalian expression vector, pcDEFneo using either EcoRI (murine) or KpnI and EcoRI (rat) restriction sites. Chinese hamster ovary cells (CHO) were transfected following manufacturers protocol (AMAXA). Forty eight hours post transfection, cells were trypsinized and transferred to 96 well plates in Iscove's DMEM media supplemented with 2 mM Glutamine, 10% fetal calf serum, 1 mg/ml geneticin and HT Supplement (0.1 mM sodium hypoxanthine, 0.016 mM thymidine) in order to isolate single clones. Following selection in geneticin, individual clones were selected and FAAH activity was assessed using a whole cell fluorescent anandamide assay, modified from Ramarao et al (2005). Following removal of tissue culture media cells were dislodged following addition of Cellstripper (Mediatech, Inc. Manassas, Va.) and transferred to 96 well black clear bottom assay plate, centrifuged at 1,000 rpm for 3 mins and media removed and replaced with assay buffer (50 mM Tris pH8.0, 1 mM EDTA, 0.1% fatty acid free BSA). The reaction was initiated by addition of fluorescent substrate, AMC Arachidonoyl Amide (Cayman Chemical, Ann Arbor, Mich.) to 1 μM and reaction allowed to proceed for 2 hours at room temperature. Release of fluorescence was monitored in a CytoFluor Multiplate Reader. Cells expressing the highest amount of FAAH activity were selected for study with FAAH inhibitors.
as §2
as §3, with “Cells are resuspended in assay buffer at desired cell number in (4×10^4 cells/assay in 96-well format; 1×10^4 cells/assay in 384-well format) and assayed as described.” left out

As usually defined, the IC50 is the concentration that inhibits the measured activity by half. A high value points to lower potency.

Values joined by “and” are separate entries in the source; they are usually repeats but may differ in a detail not shown here. Identical values can stand only once.

For `NS(=O)(=O)c1ccc(-c2[nH]c3ncccc3c2Sc2ccc(Cl)cc2)cc1` [Example A7, 4-{3-[(4-chlorophenyl)sulfanyl]-1H-pyrrolo[2,3-b]pyridin-2-yl}benzenesulfonamide], the IC50 in assay [1] amounted to 4.39 nM; in assay [2], 21.9 nM.
In the case of `NS(=O)(=O)c1ccc(-c2[nH]c3ncccc3c2Sc2ccc(Cl)cn2)cc1` [Example A8, 4-{3-[(5-chloropyridin-2-yl)sulfanyl]-1H-pyrrolo[2,3-b]pyridin-2-yl}benzenesulfonamide], the values for the IC50 in assay [1] and in assay [2] were 6 nM and 21.8 nM, respectively.
For `CSc1ccc(-c2[nH]c3ncccc3c2Sc2ccc(Cl)cc2)cc1` [Example A10], in that order: 0.872 nM and 7.67 nM.
Taken in the same sequence, the figures for `CN(C)S(=O)(=O)c1ccc(-c2[nH]c3ncccc3c2Sc2ccc(Cl)cc2)cc1` [Example A11] were 6.38 nM and 84.1 nM.
For `OC(c1ccc(-c2[nH]c3ncccc3c2Sc2ccc(Cl)cc2)cc1)C(F)(F)F` (stereo not shown) [Example A12], in that order: 5.29 nM and 27 nM.
For the compound `CC(C)(O)c1ccc(-c2[nH]c3ncccc3c2Sc2ccc(Cl)cn2)cc1` [Example A13], the 50% inhibitory concentration (IC50) is 17.8 nM in assay [1] and 73.2 nM in assay [2].
`CSc1ccc(-c2[nH]c3ncccc3c2Sc2ccc(Cl)cn2)cc1` [Example A14]: the half-inhibitory concentration (IC50) in assay [1] came to 2.98 nM; in assay [2] it was 35.6 nM.
For `C[S+]([O-])c1ccc(-c2[nH]c3ncccc3c2Sc2ccc(Cl)cn2)cn1` (stereo not shown) [Example A15], in that order: 44.1 nM and 34.4 nM.
Taken in the same sequence, the figures for `CSc1ccc(-c2[nH]c3ncccc3c2Sc2ccc(Cl)cc2)cn1` [Example A16] were 3.08 nM and 24 nM.
For `CC(C)Oc1ccc(-c2[nH]c3ncccc3c2Sc2ccc(Cl)cc2)cc1` [Example A17], in that order: 11.6 nM and 154 nM.
Take `COCc1ccccc1-c1[nH]c2ncccc2c1Sc1ccc(Cl)cc1` [Example A19]: the IC50 in assay [1] was 196 nM; in assay [2], 1740 nM.
With `CC(=O)Nc1ccc(-c2[nH]c3ncccc3c2Sc2ccc(Cl)cc2)cc1` [Example A20], the results for the IC50 in assay [1] and in assay [2] were 110 nM and 370 nM, respectively.
For `O=S(=O)(c1ccc(-c2[nH]c3ncccc3c2Sc2ccc(Cl)cn2)cc1)N1CCOCC1` [Example A21], in that order: 230 nM and 370 nM.
Turning to `CC(C)(C)NS(=O)(=O)c1ccc(-c2[nH]c3ncccc3c2Sc2ccc(Cl)cc2)cc1` [Example A22], the IC50 in assay [1] is 117 nM; in assay [2] it was 370 nM.
As to `Oc1ccc(-c2[nH]c3ncccc3c2Sc2ccc(Cl)cc2)cc1` [Example A23], the figures for the IC50 in assay [1] and in assay [2] were 1.65 nM and 16.4 nM, respectively.
For `COc1ccc(-c2[nH]c3ncccc3c2Sc2ccc(Cl)cn2)cn1` [Example A24], in that order: 30.4 nM and 128 nM.
Turning to `OC(c1ccc(-c2[nH]c3ncccc3c2Sc2ccc(Cl)cn2)cc1)C(F)(F)F` (stereo not shown) [Example A25], the figures for the IC50 in assay [1] and in assay [2] were 37.6 nM and 147 nM, respectively.
Taken in the same sequence, the figures for `COC(=O)c1ccc(-c2[nH]c3ncccc3c2Sc2ccc(Cl)cc2)cc1` [Example A26] were 2.84 nM and 18.3 nM.
For `Nc1ccc(-c2[nH]c3ncccc3c2Sc2ccc(Cl)cc2)cc1` [Example A27], in that order: 5.56 nM and 124 nM.
`OC1CC=C(c2[nH]c3ncccc3c2Sc2ccc(Cl)cn2)CC1` (stereo not shown) [Example A28]: the IC50 in assay [1] was 11.8 nM and 20.5 nM; in assay [2] it was 31.6 nM and 60.4 nM.
`OCc1ccc(-c2[nH]c3ncccc3c2Sc2ccc(Cl)cc2)cc1` [Example A29]: the IC50 in assay [1] turned out to be 16.9 nM; in assay [2], 132 nM.
Taken in the same sequence, the figures for `NCc1ccc(-c2[nH]c3ncccc3c2Sc2ccc(Cl)cc2)cc1` [Example A30] were 56.3 nM and 833 nM.
On to `CC(C)(O)c1ccc(-c2[nH]c3ncccc3c2Sc2ccc(Cl)cc2)cc1` [Example A31], for which the values for the IC50 in assay [1] and in assay [2] were 13.2 nM and 42 nM, respectively.
For `O=C1NCc2cc(-c3[nH]c4ncccc4c3Sc3ccc(Cl)cc3)ccc21` [Example A32], in that order: 7.84 nM and 15.1 nM.
Taken in the same sequence, the figures for `O=C1Cc2cc(-c3[nH]c4ncccc4c3Sc3ccc(Cl)cn3)ccc2N1` [Example A33] were 134 nM and 405 nM.
Turning to `O=C1NCc2cc(-c3[nH]c4ncccc4c3Sc3ccc(Cl)cn3)ccc21` [Example A34], the values for the IC50 in assay [1] and in assay [2] were 12.3 nM and 17.1 nM, respectively.

For the origin of these results see US20130059850A1, “AZA-INDOLE DERIVATIVES USEFUL AS MODULATORS OF FAAH” (MERCK SHARP & DOHME CORP., priority 2010, published 2013).
